Patent US20050070555A1, “Aroyl pyridinones” (Bayer HealthCare AG, priority 2001, published 2005)

Molecular target: p38 map kinase (Homo sapiens, UniProt Q16539)
Experiment: P 38 Map Kinase Assay (SPA [33-P] serine/threonine kinase assay)
Format: biochemical
Settings: 10 μM ATP, 2.5 μM biotinylated myelin basic protein substrate, 500 ng/well enzyme, 90 min, 30° C.
Source text: The assay makes use of the serine/theonine protein kinase SPA [33-P]+assay kit from Amersham Phamacia Biotech. The assay is a homogeneous technique using SPA technology for the quantification of serine threonine kinase activity.
It is based on the p38 map kinase catalysed transfer of the γ-phosphate group of the [γ-^33P] […] to the substrate, biotinylated myelin basic protein (MBP). The resulting [^33P]-labelled biotinylated product is trapped on a PVT SPA bead containing scintillant which has been surface coated with streptavidin.
The beads are allowed to settle to eliminate high background, and therefore only ^33P labelled product attached to the SPA bead is detected.
The assay is carried out in the presence and absence of test compounds to determine their effect on p38 map kinase activity.
A test protocol is as follows:
• 1. SPA assay kit (Amersham). Components: • Assay buffer (store frozen) • Stop solution (store frozen). • Streptavidin coated SPA beads—reconstitute with 5 mls of PBS. (50 mg/ml). (Store in fridge) • 2. p 38 map kinase enzyme SCRD (500 μg/ml)—aliquoted in 1.5 mls. • dilute 1:10 to 50 μg/ml • 1 plate—110 μl (stock 500 μg/ml)+990 μl PBS. • 3. Assay reagent: • for 1 plate: 504 μl Assay buffer (500 Mm MOPS pH 7.2, 10 μM ATP, 50 mM MgCl2, 25 μM biotinylated myelin basic protein (MBP)). • 2513.4 μl Water • 1.1 μl 33-p-ATP (10 μCi/ul) (on activity date/adjust for activity date) • 4.534 μl×10^-2M ATP in water • 4. Stop solution: • for 1 plate: 265.92 μl streptavidin coated beads (50 mg/ml) • 1651.684 μl stop buffer (500 μM ATP, 50 mM EDTA 1% Triton X-100) • 7084.32 μl PBS. • 1. Add 10 μl compound Dilutons (5× final conc) Test wells. • 2. Add 10 μl 12.5% DMSO to control/blank wells. • 3. Add 10 μl enzyme (50 μg/ml) final conc 500 ng/well • 4. Add 10 μl PBS to blank wells. • 5. Add 30 μl of assay reagent to each well. (final conc 10 μM ATP, 2.5 μM substrate) • 6. Mix well on plate shaker. • 7. Incubate 90 min (30° C.) • 8. Add 75 μl of stop solution to each well (final conc 55 μM ATP) • 9. Spin plate: −3 min/1600 rpm/20° C. (alternatively leave to settle overnight) • 10. Read in Microbeta, Protocol SPA paralux 3.

Sequence of p38 map kinase (Q16539 whole entry): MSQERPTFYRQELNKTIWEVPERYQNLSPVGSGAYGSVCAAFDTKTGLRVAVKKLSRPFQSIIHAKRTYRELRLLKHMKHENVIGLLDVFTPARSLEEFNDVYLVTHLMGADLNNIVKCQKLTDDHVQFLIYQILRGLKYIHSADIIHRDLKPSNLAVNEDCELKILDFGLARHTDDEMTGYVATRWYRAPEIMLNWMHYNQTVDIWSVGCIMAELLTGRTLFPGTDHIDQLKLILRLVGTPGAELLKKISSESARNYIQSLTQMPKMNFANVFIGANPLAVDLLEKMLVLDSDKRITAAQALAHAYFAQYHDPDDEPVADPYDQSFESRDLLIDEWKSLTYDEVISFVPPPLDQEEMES

Structure (SMILES) | IC50 [nM]
O=C(c1ccc(F)cc1F)c1ccc(=O)n2c1N[C@@H]1CCCC[C@@H]12 (racemic) [Example 1, (Rac-cis-5a,9a)-4-(2,4-difluorobenzoyl)-5a,6,7,8,9,9a-hexahydropyrido[1,2-a]benzimidazol-1(5H)-one] | 340
O=C(c1ccccc1)c1ccc(=O)n2c1N[C@@H]1CCCC[C@@H]12 (racemic) [Example 3, (Rac-cis-5a,9a)-4-benzoyl-5a,6,7,8,9,9a-hexahydropyrido[1,2-a]benzimidazol-1(5H)-one] | 455
O=C(c1cccc(Cl)c1)c1ccc(=O)n2c1N[C@@H]1CCCC[C@@H]12 (racemic) [Example 9, (Rac-cis-5a,9a)-4-(3-chlorobenzoyl)-5a,6,7,8,9,9a-hexahydropyrido[1,2-a]benzimidazol-1(5H)-one] | 228
O=C(c1ccc(F)cc1F)c1ccc(=O)n2c1N[C@H]1CCCC[C@@H]12 [Example 2-1, (5aS,9aS)-4-(2,4-difluorobenzoyl)-5a,6,7,8,9,9a-hexahydropyrido[1,2-a]benzimidazol-1(5H)-one] | 164
CC1(C)Cn2c(c(C(=O)c3ccc(Cl)cc3)ccc2=O)N1 [Example 21] | 1800
CC1(C)CNc2c(C(=O)c3ccc(F)cc3)ccc(=O)n2C1 [Example 24, 9-(4-Fluorobenzoyl)-3,3-dimethyl-1,2,3,4-tetrahydro-6H-pyrido[1,2-a]pyrimidin-6-one] | 386
